Results taken from patent US20070157931A1, “System and method for optimized delivery of an aerosol to the respiratory tract” (priority 2005, published 2007).

Key:
Format in all cases: in vivo
[1] = Aerosol deposition and clearance of radiotracers in lungs of ventilated sheep (Hawkeye imaging, gamma counting of lung tissue); details: Hi-Flo MiniHeart nebulizer
Description: The present study was designed to assess aerosol deposition patterns using jet nebulizers and the device of the present disclosure. These studies were conducted in the Vanderbilt University Medical Center Hawkeye scanning facility. Each sheep was surgically instrumented with catheters in a jugular vein and a carotid artery. After allowing several days for the sheep to recuperate from surgery, they were anesthetized, intubated, ventilated, and placed on the GE Hawkeye scanner bed. […] The contents of the syringe were then added to a nebulizer and aerosols generated for 30 minutes during ventilator-assisted inspiration. Planar images were taken every two minutes with anterior and posterior cameras. Nebulization was then halted, and clearance of the radiotracers over two hours was measured with Hawkeye in an identical manner. At the end of the radioisotope clearance image acquisition, a rotational CT image was taken of the sheep thoracic cavity to delineate lung boundaries and chest anatomy. The sheep was sacrificed and its lungs excised. Lungs were placed on grid paper and diced with a rectangular cutting grid. Lung tissue was placed in plastic vials and gamma energy emissions of each isotope measured with a gamma counter.

[2] = Wasted fraction of continuously delivered radioaerosol in ventilated sheep, expiratory filter gamma counting; details: continuous zero flow nebulizer
Description: This study was designed to compare the wasted fraction of ^99mTc-DTPA aerosols delivered continuously with the zero flow nebulizer to control sheep (n=6) and sheep administered 2 mg/kg E. coli endotoxin. This dose of endotoxin in sheep causes a period of intense bronchoconstriction and pulmonary vasoconstriction followed by pulmonary edema. The experimental setup was similar to that illustrated in FIG. 15, except that no scintillation probe was used and isotope waste was measured by counting radioactivity in a filter placed in the expiratory portion of the ventilator tubing using a gamma energy counter. The wasted fraction of aerosol was more than 3-fold higher during endotoxin-induced lung injury with endotoxin [3,836,141 (n=1)] than when the lungs were normal [1,289,102±125,326 (n=6)].

anesthetized sheep = test: Bronchoconstriction produced by sodium arachidonate aerosol in anesthetized ventilated sheep; details: aerosolized, dose 1.5 grams/50 ml typically diluted 1:3
Description: In anesthetized sheep with either normal lung mechanics or during bronchoconstriction, the effects of phasic aerosol delivery on the amount of radioisotope deposited in the lungs and the amount expired (as collected in a waste filter) were tested. Results were compared to those in which aerosol was delivered continuously. Sheep were anesthetized and ventilated with oxygen-enriched air at a tidal volume of 500 ml and a respiratory rate of 10 breaths per minute. The ventilator setup is illustrated schematically in FIG. 15.
FIGS. 16-18 also illustrate effects of bronchoconstriction produced by an aerosol of sodium arachidonate on aerosol delivery efficiency. These studies were conducted after the control studies discussed above. Arachidonic acid was converted to sodium arachidonate by the procedure of Ogletree and Brigham and was aerosolized (Dose=1.5 grams/50 ml typically diluted 1:3) to cause marked bronchoconstriction and/or decreased lung compliance and thus elevated airway pressure. […] During bronchoconstriction, ^99mTc-DTPA was administered by phasic aerosol delivery while maintaining the arachidonate delivery. […]

In the case of O=C([O-])CN(CCN(CC(=O)[O-])CC(=O)[O-])CCN(CC(=O)[O-])CC(=O)[O-].[99Tc+4] [99mTc-DTPA], the “tracer remaining in lungs after halting aerosol generation” value ([1]; 2 hours after halting aerosol generation) is reported as “much of the tracer remained”, the “radioisotope distribution in lung tissue” value ([1]; gamma counting of lung tissue samples) is reported as “higher dorsal (towards back) and caudal (towards tail) deposition” and the “wasted fraction, endotoxin-induced lung injury versus normal lungs” value [2] is reported as “more than 3 fold”. The “wasted fraction of aerosol (radioactivity in expiratory filter)” value ([2]; endotoxin-induced lung injury, 2 mg/kg E. coli endotoxin, n=1) was 3,836,141 and the “wasted fraction of aerosol (radioactivity in expiratory filter)” value ([2]; normal lungs, control sheep, n=6) was 1,289,102±125,326.

In the case of CCCCC/C=C\C/C=C\C/C=C\C/C=C\CCCC(=O)[O-].[Na+] [sodium arachidonate], the hypoxemia during bronchoconstriction (anesthetized sheep) is reported as “marked hypoxemia” and the “airway pressure during bronchoconstriction” value (anesthetized sheep; within 20 minutes) is reported as 48-50 cm H2O.
